{"source": "ChEMBL document CHEMBL3091293", "about": "“The synthesis and biodistribution of [(11)C]metformin as a PET probe to study hepatobiliary transport mediated by the multi-drug and toxin extrusion transporter 1 (MATE1) in vivo” (Bioorg Med Chem, 2013)", "type_in_all_cases": "ADME, organism-based", "key": {"Mus musculus [1]": {"system": "Mus musculus", "assay": "Biodistribution in remaining body parts of ddY mouse at 5.6 +/- 2.1 MBq, iv measured per gram of tissue at 30 mins by gamma-ray counting analysis", "details": "in vivo, 0.5 h; call rule not given here"}, "Mus musculus [2]": {"system": "Mus musculus", "assay": "Biodistribution in remaining body parts of ddY mouse at 5.6 +/- 2.1 MBq, iv measured per gram of tissue at 45 mins by gamma-ray counting analysis", "details": "in vivo, 0.75 h"}, "Liver [3]": {"system": "Liver", "assay": "Biodistribution in liver of ddY mouse at 5.6 +/- 2.1 MBq, iv measured per gram of tissue at 30 mins by gamma-ray counting analysis", "details": "in vivo, 0.5 h"}, "Mus musculus [4]": {"system": "Mus musculus", "assay": "Biodistribution in heart wall of ddY mouse at 5.6 +/- 2.1 MBq, iv measured per gram of tissue at 35 mins by gamma-ray counting analysis", "details": "in vivo"}, "Thyroid gland [5]": {"system": "Thyroid gland", "assay": "Biodistribution in thyroid of ddY mouse at 5.6 +/- 2.1 MBq, iv measured per gram of tissue at 45 mins by gamma-ray counting analysis", "details": "in vivo, 0.75 h"}, "Spleen [6]": {"system": "Spleen", "assay": "Biodistribution in spleen of ddY mouse at 5.6 +/- 2.1 MBq, iv measured per gram of tissue at 30 mins by gamma-ray counting analysis", "details": "in vivo, 0.5 h"}, "Lung [7]": {"system": "Lung", "assay": "Biodistribution in lung of ddY mouse at 5.6 +/- 2.1 MBq, iv measured per gram of tissue at 90 mins by gamma-ray counting analysis", "details": "in vivo, 1.5 h"}, "Lung [8]": {"system": "Lung", "assay": "Biodistribution in lung of ddY mouse at 5.6 +/- 2.1 MBq, iv measured per gram of tissue at 30 mins by gamma-ray counting analysis", "details": "in vivo, 0.5 h"}, "Spleen [9]": {"system": "Spleen", "assay": "Biodistribution in spleen of ddY mouse at 5.6 +/- 2.1 MBq, iv measured per gram of tissue at 35 mins by gamma-ray counting analysis", "details": "in vivo"}, "Kidney [10]": {"system": "Kidney", "assay": "Biodistribution in kidney of ddY mouse at 5.6 +/- 2.1 MBq, iv measured per gram of tissue at 35 mins by gamma-ray counting analysis", "details": "in vivo"}, "Mus musculus [11]": {"system": "Mus musculus", "assay": "Biodistribution in small intestine wall of ddY mouse at 5.6 +/- 2.1 MBq, iv measured per gram of tissue at 30 mins by gamma-ray counting analysis", "details": "in vivo, 0.5 h"}, "Pancreas [12]": {"system": "Pancreas", "assay": "Biodistribution in pancreas of ddY mouse at 5.6 +/- 2.1 MBq, iv measured per gram of tissue at 30 mins by gamma-ray counting analysis", "details": "in vivo, 0.5 h"}, "Mus musculus [13]": {"system": "Mus musculus", "assay": "Biodistribution in large intestine wall of ddY mouse at 5.6 +/- 2.1 MBq, iv measured per gram of tissue at 90 mins by gamma-ray counting analysis", "details": "in vivo, 1.5 h"}, "Kidney [14]": {"system": "Kidney", "assay": "Drug uptake in kidney of ddY mouse at 127 +/- 35 MBq/kg, iv measured up to 4.5 mins by microPET image analysis", "details": "in vivo, 0.075 h"}, "Kidney [15]": {"system": "Kidney", "assay": "Drug uptake in kidney of ddY mouse at 127 +/- 35 MBq/kg, iv measured up to 4.5 mins by microPET image analysis in presence of MATE1 inhibitor pyrimethamine", "details": "in vivo, 0.075 h"}, "Mus musculus [16]": {"system": "Mus musculus", "assay": "Biodistribution in stomach wall of ddY mouse at 5.6 +/- 2.1 MBq, iv measured per gram of tissue at 35 mins by gamma-ray counting analysis", "details": "in vivo"}, "Pancreas [17]": {"system": "Pancreas", "assay": "Biodistribution in pancreas of ddY mouse at 5.6 +/- 2.1 MBq, iv measured per gram of tissue at 35 mins by gamma-ray counting analysis", "details": "in vivo"}, "Mus musculus [18]": {"system": "Mus musculus", "assay": "Biodistribution in urinary bladder/urine of ddY mouse at 5.6 +/- 2.1 MBq, iv measured per gram of tissue at 15 mins by gamma-ray counting analysis", "details": "in vivo, 0.25 h"}, "Kidney [19]": {"system": "Kidney", "assay": "Biodistribution in kidney of ddY mouse at 5.6 +/- 2.1 MBq, iv measured per gram of tissue at 60 mins by gamma-ray counting analysis", "details": "in vivo, 1 h"}, "Mus musculus [20]": {"system": "Mus musculus", "assay": "Biodistribution in small intestine wall of ddY mouse at 5.6 +/- 2.1 MBq, iv measured per gram of tissue at 35 mins by gamma-ray counting analysis", "details": "in vivo"}, "[21]": {"assay": "Drug uptake in urinary bladder of ddY mouse at 127 +/- 35 MBq/kg, iv measured up to 4.5 mins by microPET image analysis in presence of MATE1 inhibitor pyrimethamine", "details": "in vivo, 0.075 h"}, "Blood": {"system": "Blood", "assay": "Metabolic stability in blood of mouse at 5 +/- 2.3 MBq/kg, iv measured until 30 to 60 mins by HPLC analysis in presence of MATE1 inhibitor pyrimethamine", "details": "in vivo"}, "Mus musculus [22]": {"system": "Mus musculus", "assay": "Biodistribution in stomach wall of ddY mouse at 5.6 +/- 2.1 MBq, iv measured per gram of tissue at 45 mins by gamma-ray counting analysis", "details": "in vivo, 0.75 h"}, "Thyroid gland [23]": {"system": "Thyroid gland", "assay": "Biodistribution in thyroid of ddY mouse at 5.6 +/- 2.1 MBq, iv measured per gram of tissue at 60 mins by gamma-ray counting analysis", "details": "in vivo, 1 h"}, "Lung [24]": {"system": "Lung", "assay": "Biodistribution in lung of ddY mouse at 5.6 +/- 2.1 MBq, iv measured per gram of tissue at 35 mins by gamma-ray counting analysis", "details": "in vivo"}, "Mus musculus [25]": {"system": "Mus musculus", "assay": "Biodistribution in stomach wall of ddY mouse at 5.6 +/- 2.1 MBq, iv measured per gram of tissue at 60 mins by gamma-ray counting analysis", "details": "in vivo, 1 h"}, "Liver [26]": {"system": "Liver", "assay": "Metabolic stability in liver of mouse at 5 +/- 2.3 MBq/kg, iv measured until 30 to 60 mins by HPLC analysis in presence of MATE1 inhibitor pyrimethamine", "details": "in vivo"}, "Mus musculus [27]": {"system": "Mus musculus", "assay": "Biodistribution in urinary bladder/urine of ddY mouse at 5.6 +/- 2.1 MBq, iv measured per gram of tissue at 90 mins by gamma-ray counting analysis", "details": "in vivo, 1.5 h"}, "Liver [28]": {"system": "Liver", "assay": "Biodistribution in liver of ddY mouse at 5.6 +/- 2.1 MBq, iv measured per gram of tissue at 45 mins by gamma-ray counting analysis", "details": "in vivo, 0.75 h"}, "Mus musculus [29]": {"system": "Mus musculus", "assay": "Biodistribution in large intestine wall of ddY mouse at 5.6 +/- 2.1 MBq, iv measured per gram of tissue at 35 mins by gamma-ray counting analysis", "details": "in vivo"}, "Spleen [30]": {"system": "Spleen", "assay": "Biodistribution in spleen of ddY mouse at 5.6 +/- 2.1 MBq, iv measured per gram of tissue at 15 mins by gamma-ray counting analysis", "details": "in vivo, 0.25 h"}, "Thyroid gland [31]": {"system": "Thyroid gland", "assay": "Biodistribution in thyroid of ddY mouse at 5.6 +/- 2.1 MBq, iv measured per gram of tissue at 90 mins by gamma-ray counting analysis", "details": "in vivo, 1.5 h"}, "Kidney [32]": {"system": "Kidney", "assay": "Biodistribution in kidney of ddY mouse at 5.6 +/- 2.1 MBq, iv measured per gram of tissue at 45 mins by gamma-ray counting analysis", "details": "in vivo, 0.75 h"}, "[33]": {"assay": "Metabolic stability in urine of mouse at 5 +/- 2.3 MBq/kg, iv measured until 30 to 60 mins by HPLC analysis in presence of MATE1 inhibitor pyrimethamine", "details": "in vivo"}, "Mus musculus [34]": {"system": "Mus musculus", "assay": "Biodistribution in remaining body parts of ddY mouse at 14.6 +/- 2.1 MBq, iv measured per gram of tissue at 14 mins by PET image analysis", "details": "in vivo"}, "Mus musculus [35]": {"system": "Mus musculus", "assay": "Biodistribution in heart wall of ddY mouse at 5.6 +/- 2.1 MBq, iv measured per gram of tissue at 15 mins by gamma-ray counting analysis", "details": "in vivo, 0.25 h"}, "Mus musculus [36]": {"system": "Mus musculus", "assay": "Biodistribution in urinary bladder/urine of ddY mouse at 5.6 +/- 2.1 MBq, iv measured per gram of tissue at 60 mins by gamma-ray counting analysis", "details": "in vivo, 1 h"}}, "data": [{"smiles": "CN([11CH3])C(=N)NC(=N)N", "values": [{"measurement": "Drug uptake", "setting": "Mus musculus [1]", "result": 18.728, "unit": "%ID"}, {"measurement": "Drug uptake", "setting": "Mus musculus [2]", "result": 17.28, "unit": "%ID"}, {"measurement": "Drug uptake", "setting": "Liver [3]", "result": 2.319, "unit": "%ID"}, {"measurement": "Drug uptake", "setting": "Mus musculus [4]", "result": 0.049, "unit": "%ID"}, {"measurement": "Drug uptake", "setting": "Thyroid gland [5]", "result": 0.002, "unit": "%ID"}, {"measurement": "Drug uptake", "setting": "Spleen [6]", "result": 0.162, "unit": "%ID"}, {"measurement": "Drug uptake", "setting": "Lung [7]", "result": 0.128, "unit": "%ID"}, {"measurement": "Drug uptake", "setting": "Lung [8]", "result": 0.218, "unit": "%ID"}, {"measurement": "Drug uptake", "setting": "Spleen [9]", "result": 0.145, "unit": "%ID"}, {"measurement": "Drug uptake", "setting": "Kidney [10]", "result": 0.274, "unit": "%ID"}, {"measurement": "Drug uptake", "setting": "Mus musculus [11]", "result": 3.165, "unit": "%ID"}, {"measurement": "Drug uptake", "setting": "Pancreas [12]", "result": 0.405, "unit": "%ID"}, {"measurement": "Drug uptake", "setting": "Mus musculus [13]", "result": 0.24, "unit": "%ID"}, {"measurement": "Drug uptake", "setting": "Kidney [14]", "result": "Active"}, {"measurement": "Drug uptake", "setting": "Kidney [15]", "result": "Active"}, {"measurement": "Drug uptake", "setting": "Mus musculus [16]", "result": 0.091, "unit": "%ID"}, {"measurement": "Drug uptake", "setting": "Pancreas [17]", "result": 0.196, "unit": "%ID"}, {"measurement": "Drug uptake", "setting": "Mus musculus [18]", "result": 35.204, "unit": "%ID"}, {"measurement": "Drug uptake", "setting": "Kidney [19]", "result": 1.068, "unit": "%ID"}, {"measurement": "Drug uptake", "setting": "Mus musculus [20]", "result": 2.06, "unit": "%ID"}, {"measurement": "Drug uptake", "setting": "[21]", "result": "Active"}, {"measurement": "Stability", "setting": "Blood", "result": "Stable"}, {"measurement": "Drug uptake", "setting": "Mus musculus [22]", "result": 0.08, "unit": "%ID"}, {"measurement": "Drug uptake", "setting": "Thyroid gland [23]", "result": 0.005, "unit": "%ID"}, {"measurement": "Drug uptake", "setting": "Lung [24]", "result": 0.119, "unit": "%ID"}, {"measurement": "Drug uptake", "setting": "Mus musculus [25]", "result": 0.169, "unit": "%ID"}, {"measurement": "Stability", "setting": "Liver [26]", "result": "Stable"}, {"measurement": "Drug uptake", "setting": "Mus musculus [27]", "result": 59.056, "unit": "%ID"}, {"measurement": "Drug uptake", "setting": "Liver [28]", "result": 0.827, "unit": "%ID"}, {"measurement": "Drug uptake", "setting": "Mus musculus [29]", "result": 0.342, "unit": "%ID"}, {"measurement": "Drug uptake", "setting": "Spleen [30]", "result": 0.144, "unit": "%ID"}, {"measurement": "Drug uptake", "setting": "Thyroid gland [31]", "result": 0.013, "unit": "%ID"}, {"measurement": "Drug uptake", "setting": "Kidney [32]", "result": 0.165, "unit": "%ID"}, {"measurement": "Stability", "setting": "[33]", "result": "Stable"}, {"measurement": "Drug uptake", "setting": "Mus musculus [34]", "result": 36.878, "unit": "%ID"}, {"measurement": "Drug uptake", "setting": "Mus musculus [35]", "result": 0.102, "unit": "%ID"}, {"measurement": "Drug uptake", "setting": "Mus musculus [36]", "result": 69.767, "unit": "%ID"}]}]}
